Key:
[1] = test system: conscious fully-instrumented dogs with normal cardiac function; test: Cardiac reserve under acute β-AR (dobutamine) challenges in conscious instrumented dogs; format: in vivo, dog
Protocol: In addition, the effects of MAVA (at 1.5 mg/kg PO, via gavage) on cardiac reserve were evaluated via acute β-AR challenges (dobutamime: 2, 5, and 10 ug/kg/min IV) in conscious fully-instrumented (LVPV group) dogs with normal cardiac function (n=8). These challenges were performed before/after dosing (+3-hour) in control- and MAVA-treated animals both under normal cardiac physiological conditions (n=4) and under (mild) concomitant cardio-depression induced via either selective β-AR blockade (+BB, metoprolol 0.5±0.1 mg/kg PO tid; n=4) or L-type Ca2+-channel blockade (+CCB, verapamil at 5±1 mg/kg PO tid; n=4); pharmacological blockades were established for 7 days prior to the MAVA treatment. Both peak and dose-responses were evaluated at steady state.
Throughout these experiments, analog signals were digitally acquired (1000 Hz) and recorded continuously with a data acquisition/analysis system (IOX; EMKA Technologies). Heart rate (HR), end-systolic (ESP) and end-diastolic pressures (EDP), as well as the peak rates of pressure rise/decline (dP/dtmax and dP/dtmin), the contractility index (CI: dP/dt/P at dP/dtmax), and the time-constant of myocardial relaxation (tau1/2, time for 50% decay from dP/dtmin) were derived from the LV pressure signal. Meanwhile, the end-systolic (ESV) and end-diastolic volumes (EDV) were measured from the LV volume signal derived from the implanted myocardial crystals. LV volumes were derived assuming a Teichholz model, and stroke volume (SV=EDV−ESV), ejection fraction (EF=SV/EDV), as well as cardiac output (CO=SV·HR) were calculated; in a subset of animals, SV and CO values were verified from data derived from the implanted aortic flow […]. […] The slopes of the preload-recruitable stroke work (PRSW; stroke work vs. EDV) and the end-systolic pressure-volume relationships (ESPVR; end-systolic elastance, Ees) were derived by software using linear models (IOX; EMKA Technologies), and were used as load-independent inotropic indices. Ventricular load was estimated by the effective arterial elastance (Ea=ESP/SV). […]

[2] = test system: participants with symptomatic oHCM; test: EXPLORER-HCM Phase 3 double blind, randomized, placebo controlled study; format: in vivo, human
From the text: A subset of participants consented to participate in a CMR substudy at selected sites. Randomization was stratified according to NYHA functional classification (II or III), current treatment with β-blocker (yes or no), planned type of ergometer used during the study (treadmill or exercise bicycle), and consent for the CMR substudy (yes or no).
1) Screening period (Day −35 to Day −1): Participants will undergo a variety of general, cardiopulmonary, laboratory, symptom, and PRO assessments over 1 to 2 days in order to assess eligibility. Key Screening tests include electrocardiogram (ECG); transthoracic echocardiography (TTE) conducted at rest, with Valsalva maneuver, and post-exercise; as well as cardiopulmonary exercise testing (CPET). The following screening assessments may be repeated, as long as within the 35-days screening window: blood tests, ECG, and/or TTE. Repeat assessments are allowed if central core labs require a repeat submission due to quality and in order to better assess inclusion/exclusion values. Participants who screen fail may be considered for rescreening based on the investigator's discretion, taking into consideration the reason(s) for screen fail. One attempt at rescreening will be allowed, and all procedures must be repeated.
2) Double-blind treatment period (Day 1 [randomization] to Week 30/end of treatment [EOT]): The double-blind treatment period will include a two-step dose titration scheme designed to achieve safe and effective dosing for each participant based on their own response parameters. […] Subsequently, assessments including ECG, PK (trough plasma concentrations), and TTE will be performed at each of 7 study visits, beginning at Week 4, and read by core laboratories. At Week 8 and Week 14, the dose may be increased, decreased, or remain unchanged based upon results of Week 6 and Week 12 assessments, respectively, and based primarily on measurements of provoked left ventricular outflow tract (LVOT) gradient and bounded by a target plasma concentration (PK) range and clinical tolerability (LVEF). At Week 8, the dose may be increased to a maximum daily dose of 10 mg (ie, increase from 5 mg QD to 10 mg QD), and at Week 14 to a maximum daily dose of 15 mg (ie, increase from 10 mg QD to 15 mg QD). Dose increases are designed to be step wise and are not allowed to skip doses (eg, from 5 mg to 15 mg).
At Week 30/EOT, participants will complete CPET and post-exercise TTE. For any participants permanently discontinuing treatment prior to Week 30, an early termination (ET) visit should be conducted as soon as possible, including CPET and post-exercise TTE. Participants with ET will also be encouraged to complete all remaining study visits and assessments, including the Week 30 visit.
3) Posttreatment follow-up period (Week 30/EOT to Week 38/end of study [EOS]): When double-blind treatment ends at Week 30, participants will be contacted by phone at Week 34 and return to the site at Week 38 for an EOS visit. At the EOS visit, specified assessments will be repeated. This posttreatment follow-up period applies only to participants who are receiving study drug after Week 22.
To maintain safety throughout the double-blind treatment period, a clinic visit will occur every 2 to 4 weeks, beginning at Week 4 for an initial evaluation of clinical tolerability and safety. Clinic visits will include but are not limited to clinical evaluation (symptoms, PRO evaluations, adverse event [AE]/serious adverse event [SAE] assessment), ECGs, PK sample, TTEs, and laboratory assessments. Results of TTE performed by study site sonographers at each scheduled visit following randomization should be kept blinded to the investigator and other study site personnel. An exception may occur if left ventricular ejection fraction (LVEF)≤30% is measured at the site, then the investigator will be immediately notified and study drug will be permanently discontinued as described within the protocol. […]

CC(C)n1c(=O)cc(N[C@@H](C)c2ccccc2)[nH]c1=O [mavacamten, (S)-3-Isopropyl-6-((1-phenylethyl)amino)pyrimidine-2, 4(1H,3H)-dione]
β-AR induced acceleration of tau ([1]; at any given dP/dtmax gain): enhanced | β-AR elevations in dP/dtmax and CI ([1]; dobutamine challenge, MAVA 1.5 mg/kg PO): blunted | Response Type 1, n (%) ([2]; Type 1 - pVO2 ≥1.5 ml/kg/min and NYHA improved ≥1, mavacamten group (n = 123)): 41 (33.3) n (%) | Response Type 2, n (%) ([2]; Type 2 - pVO2 ≥3.0 ml/kg/min and no worsening NYHA, mavacamten group (n = 123)): 29 (23.6) n (%) | Met Composite Functional Response, either type: Mavacamten vs Placebo ([2]; difference, mavacamten (n = 123) vs placebo (n = 128)): 19.4% | participants with temporary discontinuation associated with reduced ejection fraction ([2]; in vivo): 3 | patients who achieved a complete response (NYHA 1 and all LVOT gradients below 30 mmHg) ([2]; in vivo): 27% | patients who achieved a post-exercise LVOT peak gradient below 30 mmHg ([2]; in vivo): 57% | subjects with severe TEAEs, % ([2]; in vivo): 5.7% | Rates of improvement by at least one NYHA class ([2]; patients not receiving β blocker(s)): 65% | difference vs placebo in percent of patients that met the primary endpoint ([2]; patients not receiving β blocker(s) (n=29)): 52.6% | Rates of improvement by at least one NYHA class ([2]; patients receiving β blocker(s)): 65% | difference vs placebo in percent of patients that met the primary endpoint ([2]; patients receiving β blocker(s) (n=94)): 8.7% | patients who achieved NYHA class I status ([2]; placebo 21%): 65% | subjects who experienced SAEs, % ([2]; through week 30): 8.1% | Absence of MR (mitral regurgitation), Mava vs Placebo Difference (95% CI) ([2]; vs placebo): 9.0 (3.7, 14.3) % | VE/CO2 slope change from baseline ([2]; week 30, non-β blocker subgroup): −2.5 | mean change in pVO2 ([2]; week 30, those not using β blocker(s)): 2.2 mL/kg/min | VE/CO2 slope change from baseline ([2]; week 30, β blocker subgroup): −2.5 | mean change in pVO2 ([2]; week 30, β blocker subgroup): 1.1 mL/kg/min
